Test results reported in paper PMC8750527 (Cancers, 2021).
Read-outs that look alike come from different tables or passages of the source.

What was measured:
C8-D1A = assay: MTT assay, 48 h exposure, murine primary astrocytes; format: cell-based; details: Mus musculus, C8-D1A
Description: (§1) HDF (3000 cells), C8-D1A (5000 cells), D458 (5000 cells), DAOY (2000 cells), HD-MB03 (10,000 cells) and CHLA-01-Med (10,000 cells) were seeded at an approximate confluency of 50% in 96-well plates (Corning Inc., Corning, NY, USA) in 100 µL medium per well. A range from 50 nM to 150 µM of every drug was tested. The effects of the antiangiogenic compounds were measured using a 3-[4,5-dimethylthiazol-2yl]-diphenyltetrazolium bromide (MTT) colorimetric assay (Sigma, Lyon, France) according to the manufacturer’s instructions. When applicable, IC50 was calculated using the nonlinear regression method of the Prism 5 software (Graphpad Software Inc., San Diego, CA, USA). […] An MTT assay was conducted as described above to assess the fitness of the cells.

DAOY [1] = assay: MTT assay, 48 h exposure, DAOY MB cells; format: cell-based, human; details: for IC50: Homo sapiens, Daoy, MTT, 48 h exposure, mean ± SEM
Description: as §1

HD-MB03 [2] = assay: MTT assay, 48 h exposure, HD-MB03 MB cells; format: cell-based, human; details: for IC50: Homo sapiens, HD-MB03, MTT, 48 h exposure, mean ± SEM
Description: as §1

D458 = assay: MTT assay, 48 h exposure, D458 MB cells; format: cell-based, human; details: for IC50: Homo sapiens, MTT, 48 h exposure, mean ± SEM
Description: as §1

MB cells [3] = assay: Proliferation index assay, MB cells; format: cell-based, human; details: after 120 h; axitinib 5 µM, etoposide 1 µM
Description: DAOY, D458, D283, C8-D1A and HDF (30,000 cells per well) and HD-MB03 (50,000 cells per well) were seeded in 24-well plates for proliferation assays.

DAOY [4] = assay: Cumulative population doubling (CPD), DAOY; format: cell-based, human; details: continuous treatment; axitinib 5 µM, etoposide 1 µM
Description: (§2) Cumulative population doubling (CPD) was assessed as previously described. Briefly, depending on the cell line, a variable number of cells corresponding to about 30% confluency were seeded in triplicate in 60 mm diameter Petri dishes. […] The cells were harvested when the confluency reached about 90%, counted and plated again at a dilution of 1/20. CPD was calculated as previously described.

HD-MB03 [5] = assay: Cumulative population doubling (CPD), HD-MB03; format: cell-based, human; details: continuous treatment; axitinib 5 µM, etoposide 1 µM
Description: as §2

[6] = system: C8-D1A/HD-MB03 mixed spheroids; assay: 3D mixed spheroids of astrocytes and MB cells; format: cell-based; details: 7 days; axitinib 5 µM or etoposide 1 µM
Description: C8-D1A cells were stained with the green fluorescent probe neuro-DiO (cat. number 60015, Biotium, Fremont, CA, USA) according to the manufacturer’s protocol. C8-D1A-neuroDio cells (150,000) and HD-MB03-mCherry or DAOY-mCherry cells (50,000) were plated in 12-well plates. […] Fluorescence images of the cells were taken with a DMI400 inverted microscope (Leica Microsystemes SAS, Nanterre, France) equipped with a 40× objective and a Zyla 5.5 camera (Andor Technologies, Belfast, UK). The cells were then trypsinized and the number of both cell types was quantified using a Melody FACS (BD Biosciences, Frankton Lake, NJ, USA) with a 488 nm laser beam. Analysis of the FACS data was conducted with the Flowjo software (Tree Star Inc., Ashland, OR, USA).
Two thousand cells were seeded in ultralow-adhesion 96-well plates (Corning Inc., Corning, NY, USA). […] Pictures were taken with an AMG Evos microscope 40× objective (Thermo Fisher Scientific Inc, Waltham, MA, USA) and the spheroid areas were measured using the ImageJ software (NIH, Bethesda, MD, USA).

[7] = system: HD-MB03 intracranial tumors
Description: HD-MB03-Luc spheroids were stereotaxically implanted into the brains of 9-week-old Rj:NMRI-Foxn1 nude (nu/nu) female mice (Janvier Labs, Le Genest-Saint-Isle, France). Briefly, MB spheroids were generated with 2500 cells grown for 48 h in ultralow-adhesion spheroid 96-well plates (Corning, Corning, NY, USA) and three spheroids per mouse were implanted into the left cerebellar hemisphere (2 mm posterior, 1.5 mm left of the lambda point and 2.5 mm deep) using a Hamilton syringe fitted with a needle (Hamilton, Bonaduz, Switzerland) and following the procedure already described. […] Oral gavage with a vehicle solution was used as the control. Mouse survival was based on the presence of neuropathological symptoms including gait defects and a loss of weight over 10% as endpoints. A minimum of five mice per group was chosen to yield sufficient statistical power (p < 0.05, one-way ANOVA). These experiments were carried out in strict accordance with the recommendations in the Guide for the Care and Use of Laboratory Animals. Our experiments were approved by Direction de l’Action Sanitaire et Sociale of the Principality of Monaco and the ethics committee of Centre Scientifique de Monaco.
(§3) Tumor samples were recovered from the animals and embedded in the OCT compound according to the manufacturer’s protocol (Thermo Fisher Scientific Inc., Waltham, MA, USA). After that, 5 µm thin sections were prepared with a cryostat (Leica Microsystems, Wetzlar, Germany). Incubation was carried out with the following antibodies diluted at 1:1000 in TBS supplemented with 1% horse serum and 1% BSA for 20 min at room temperature: anti-Ki67 (cat. number ab16667, Abcam, Cambridge, UK), anti-CD31 (cat. number 550274, BD Biosciences, Frankton Lake, NJ, USA) or anti-αSMA (cat. number A2547, Merck Millipore, Burlington, MA, USA). The preparations were then washed with TBS–0.025% Triton, incubated with anti-rabbit Alexa488 and anti-mouse Alex-555-coupled secondary antibodies (Cell Signaling Technology, Danvers, MA, USA), washed with TBS–0.025% Triton, and the nuclei were counterstained with Hoechst33342 (Thermo Fisher Scientific, Waltham, MA, USA). Fluorescence images of the cells were taken with a DMI400 inverted microscope equipped with a 40× objective (Leica Microsystemes, Nanterre, France) and a Zyla 5.5 camera (Andor Technologies, Belfast, UK) powered by the Micromanager software. At least one cross-section of nonoverlapping images of each tumor was acquired. All the images were then quantified with the CellProfiler 3.0 software.

[8] = system: subcutaneous HD-MB03 tumors; assay: Subcutaneous HD-MB03 xenografts; format: in vivo, mouse; details: oral, thrice a week
Description: For subcutaneous xenograft experiments, tumor cells expressing the luciferase (350,000 HDMB-Luc cells and 1.10^6 DAOY-Luc cells) were resuspended in 200 µL of 5 µg/mL Matrigel (Corning Inc., Corning, NY, USA) and injected subcutaneously in the flank of 5-week-old Rj:NMRI-Foxn1 nude (nu/nu) female mice (Janvier Labs, Le Genest-Saint-Isle, France). Saline solution (NaCl 0.9M; 100 µL) containing 30 mg/mL D-Luciferin (Perkin Elmer, Wellesley, MA, USA) was injected intraperitoneally in the animals and the bioluminescence was quantified using an In Vivo Imaging System (Perkin Elmer, Wellesley, MA, USA) according to the manufacturer’s instructions. Tumor volume (V = L × l2 × 0.52) was determined with a caliper and the endpoint was determined as a tumor volume of 1000 mm^3. […] The mice were sacrificed when the tumor reached 1000 mm^3. […] No statistical methods were used to predetermine the sample size of the experiments. Animal facility availability and cost were used to determine sample sizes. Two independent cohorts of five mice per group were used for the tumor growth experiment with HD-MB03 cells and one cohort of five mice per group was used for the experiment with DAOY cells. Animal experiments were carried out in strict accordance with the recommendations in the Guide for the Care and Use of Laboratory Animals. Our experiments were approved by Direction de l’Action Sanitaire et Sociale of the Principality of Monaco and the ethics committee of Centre Scientifique de Monaco.
(§4) The growth rate of the tumors generated with HD-MB03 cells was determined using a linear regression method applied to the growth curves between the sizes of 400 mm^3 up to the endpoint using Prism 5 (Graphpad Software Inc., San Diego, CA, USA).
as §3

subcutaneous DAOY tumors = details: oral, thrice a week; axitinib 50 mg/kg, etoposide 30 mg/kg, combination 25 + 15 mg/kg
Description: For subcutaneous xenograft experiments, tumor cells expressing the luciferase (350,000 HDMB-Luc cells and 1.10^6 DAOY-Luc cells) were resuspended in 200 µL of 5 µg/mL Matrigel (Corning Inc., Corning, NY, USA) and injected subcutaneously in the flank of 5-week-old Rj:NMRI-Foxn1 nude (nu/nu) female mice (Janvier Labs, Le Genest-Saint-Isle, France). Saline solution (NaCl 0.9M; 100 µL) containing 30 mg/mL D-Luciferin (Perkin Elmer, Wellesley, MA, USA) was injected intraperitoneally in the animals and the bioluminescence was quantified using an In Vivo Imaging System (Perkin Elmer, Wellesley, MA, USA) according to the manufacturer’s instructions. Tumor volume (V = L × l2 × 0.52) was determined with a caliper and the endpoint was determined as a tumor volume of 1000 mm^3. […] The mice were sacrificed when the tumor reached 1000 mm^3. […]
as §4
Tumor samples were recovered from the animals and embedded in the OCT compound according to the manufacturer’s protocol (Thermo Fisher Scientific Inc., Waltham, MA, USA). […] All the images were then quantified with the CellProfiler 3.0 software.

HDF = assay: MTT assay, 48 h exposure, human dermal fibroblasts; format: cell-based; details: Homo sapiens, HDF, Table 1, normal cells, mean ± SEM
Description: as §1

CHLA-01-Med = assay: MTT assay, 48 h exposure, CHLA-01-Med MB cells; format: cell-based, human
Description: as §1

MB cells [9] = assay: Cell viability, propidium iodine incorporation, MB cells; format: cell-based, human; details: 48 h, 5 µM
Description: (§5) Cell viability assays were conducted using a propidium iodine incorporation technique with an ADAM-sHIT automated cell counter (NanoEnTek, Gyeonggi-do, Korea) according to the manufacturer’s protocol.

C8-D1A astrocytes = assay: Cell viability, propidium iodine incorporation, C8-D1A; format: cell-based, murine; details: 48 h; axitinib, cabozantinib, sunitinib 5 µM, etoposide 1 µM
Description: as §5

[10] = axitinib 50 mg/kg, etoposide 30 mg/kg, combination 25 + 15 mg/kg

## COc1cc([C@@H]2c3cc4c(cc3[C@@H](O[C@@H]3O[C@@H]5CO[C@@H](C)O[C@H]5[C@H](O)[C@H]3O)[C@H]3COC(=O)[C@H]23)OCO4)cc(OC)c1O [Etoposide, etoposide]
C8-D1A; Table 3, mean ± SEM
  IC50: 2.2 ± 0.6 µM
DAOY [1]; Table 3
  IC50: 0.2 µM
HD-MB03 [2]; Table 3
  IC50: 0.09 ± 0.006 µM
D458; Table 3
  IC50: 0.52 ± 0.15 µM
MB cells [3]
  reduction of proliferation of MB cells: more than 80%
DAOY [4]
  long-term proliferation (CPD) of DAOY cells: strongly impaired their proliferation
HD-MB03 [5]
  long-term proliferation (CPD) of HD-MB03 cells: strongly impaired their proliferation
[6]
  size of mixed spheroids: strong decrease in the size of spheroids
[7]; metronomic oral treatment
  number of CD31-positive and αSMA-positive double-stained structures (vessels covered with pericytes): decreased the number
[7]; oral, five times a week, axitinib 50 mg/kg, etoposide 30 mg/kg, combination 25 + 15 mg/kg
  survival of mice with intracranial tumors: no significant effect on survival
[8]
  number of endothelial cells (CD31-positive) and/or pericytes/cancer-associated fibroblasts (αSMA-positive): did not impact
[8]; [10]
  median time to reach the endpoint volume (1000 mm^3): 18 days
  range of time to reach the endpoint volume (1000 mm^3): 11 to 60 days
Subcutaneous DAOY tumors
  tumor growth (lognormal mathematical modelling): decreased tumor growth rates

## CCN(CC)CCNC(=O)c1c(C)[nH]c(/C=C2\C(=O)Nc3ccc(F)cc32)c1C [Sunitinib, sunitinib]
HDF
  IC50: 1.8 ± 0.04 µM
C8-D1A; Table 1, normal cells, mean ± SEM, read-out: IC50 (µM) C8D1A
  IC50: 5.7 ± 2.2 µM
DAOY [1]; Table 1
  IC50: 7.9 ± 5.5 µM
DAOY [1]; ratio IC50 C8-D1A / IC50 DAOY
  Specificity Index relative to C8D1A, DAOY: 0.72
DAOY [1]; ratio IC50 HDF / IC50 DAOY
  Specificity Index relative to HDF, DAOY: 0.23
HD-MB03 [2]; Table 1
  IC50: 4.6 ± 0.3 µM
HD-MB03 [2]; ratio IC50 C8-D1A / IC50 HD-MB03
  Specificity Index relative to C8D1A, HDMB: 1.24
HD-MB03 [2]; ratio IC50 HDF / IC50 HD-MB03
  Specificity Index relative to HDF, HD-MB03: 0.39
D458; Table 1
  IC50: 4.2 ± 0.3 µM
D458; ratio IC50 C8-D1A / IC50 D458
  Specificity Index relative to C8D1A, D458: 1.36
D458; ratio IC50 HDF / IC50 D458
  Specificity Index relative to HDF, D458: 0.43
CHLA-01-Med; Homo sapiens, Table 1, MTT, 48 h exposure, mean ± SEM
  IC50: 7.5 ± 0.8 µM
CHLA-01-Med; ratio IC50 C8-D1A / IC50 CHLA-01-Med
  Specificity Index relative to C8D1A, CHLA-01-Med: 0.76
CHLA-01-Med; ratio IC50 HDF / IC50 CHLA-01-Med
  Specificity Index relative to HDF, CHLA-01-Med: 0.24
MB cells [9]
  viability of MB cells: decreased the viability of most MB cells
C8-D1A astrocytes
  viability of C8-D1A normal cells: strongly induced the death
